Data taken from US8772287B2, “Pyrimidinyl and 1,3,5-triazinyl benzimidazole sulfonamides and their use in cancer therapy” (VetDC, Inc., priority 2009, dated 2014).
Where two headings read alike, the source gives them in different places.

Columns and labels:
NZB5 = assay: Cellular growth inhibition, NZB5 (3H-thymidine incorporation); format: cell-based, human
Experimental: (§1) The compounds were evaluated against two early passage human cell lines NZB5 and NZOV9 (Marshall et al., Oncol. Res. 2004, 14, 297). The cells were grown in ITS medium (α-modified minimal essential medium supplemented insulin, transferrin, selenite, and 5% fetal bovine serum) and grown on 96-well tissue culture plates under an atmosphere of 5% O2, 5% CO2, and 90% N2. Individual wells contained 500-1,000 cells (depending on the growth rate) in a volume of 150 μL. Compounds were added at 10-fold concentration steps to a maximum of 20 μM and plates were incubated for five days, with ^3H-thymidine being added over the last 6 hrs. Cells were harvested and incorporated radioactivity measured. Duplicate samples were analyzed for each compound dose with multiple control samples.

NZOV9 = assay: Cellular growth inhibition, NZOV9 (3H-thymidine incorporation); format: cell-based, human
Experimental: as §1

[1] = Homo sapiens, NZB5, read-out: Cell IC50 NZB5
[2] = Homo sapiens, NZOV9, read-out: Cell IC50 NZOV9

Compound | IC50 (NZB5; [1]) [nM] | IC50 (NZOV9; [2]) [nM] | melting point [°C] | IC50 (NZB5; read-out: Cell IC50 NZB5, five days incubation, 3H-thymidine over the last 6 hrs) [nM] | IC50 (NZOV9; read-out: Cell IC50 NZOV9, five days incubation, 3H-thymidine over the last 6 hrs) [nM] | IC50 (NZB5; Homo sapiens, NZB5, five days incubation, 3H-thymidine over the last 6 hrs, read-out: Cell IC50 NZB5) [nM] | IC50 (NZOV9; Homo sapiens, NZOV9, five days incubation, 3H-thymidine over the last 6 hrs, read-out: Cell IC50 NZOV9) [nM]
COc1cccc2c1nc(C(F)F)n2-c1nc(N2CCOCC2)nc(N2CCC(N(C)S(C)(=O)=O)C2)n1 (stereo in doubt) [Example 37, N-{(3R)-1-[4-[2-(difluoromethyl)-4-methoxy-1H-benzimidazol-1-yl]-6-(4-morpholinyl)-1,3,5-triazin-2-yl]pyrrolidinyl}-N-methylmethanesulfonamide] | 100 to 1000 | < 100 | 242 to 244 |  |  |  | 
COc1cccc2c1nc(C(F)F)n2-c1nc(N2CCOCC2)nc(N2CCC(NS(C)(=O)=O)C2)n1 (stereo in doubt) [Example 38, N-{(3S)-1-[4-[2-(difluoromethyl)-4-methoxy-1H-benzimidazol-1-yl]-6-(4-morpholinyl)-1,3,5-triazin-2-yl]pyrrolidinyl}methanesulfonamide] | 100 to 1000 | < 100 | 290 to 292 |  |  |  | 
COc1cccc2c1nc(C(F)F)n2-c1nc(N2CCOCC2)nc(N2CCC(N(C)S(C)(=O)=O)C2)n1 (stereo in doubt) [Example 39, N-{(3S)-1-[4-[2-(difluoromethyl)-4-methoxy-1H-benzimidazol-1-yl]-6-(4-morpholinyl)-1,3,5-triazin-2-yl]pyrrolidinyl}-N-methylmethanesulfonamide] | 100 to 1000 | < 100 | 244 to 247 |  |  |  | 
COc1cccc2c1nc(C(F)F)n2-c1nc(N2CCOCC2)nc(N2CCCC(NS(C)(=O)=O)C2)n1 (stereo in doubt) [Example 44, N-{(3R)-1-[4-[2-(difluoromethyl)-4-methoxy-1H-benzimidazol-1-yl]-6-(4-morpholinyl)-1,3,5-triazin-2-yl]piperidinyl}methanesulfonamide] | 100 to 1000 | < 100 | 220 to 221 |  |  |  | 
COc1cccc2c1nc(C(F)F)n2-c1nc(N2CCOCC2)nc(N2CCCC(N(C)S(C)(=O)=O)C2)n1 (stereo in doubt) [Example 45, N-{(3R)-1-[4-[2-(difluoromethyl)-4-methoxy-1H-benzimidazol-1-yl]-6-(4-morpholinyl)-1,3,5-triazin-2-yl]piperidinyl}-N-methylmethanesulfonamide] | 100 to 1000 | < 100 | 224 to 226 |  |  |  | 
COc1cccc2c1nc(C(F)F)n2-c1nc(N2CCOCC2)nc(N2CCCC(NS(C)(=O)=O)C2)n1 (stereo in doubt) [Example 46, N-{(3S)-1-[4-[2-(difluoromethyl)-4-methoxy-1H-benzimidazol-1-yl]-6-(4-morpholinyl)-1,3,5-triazin-2-yl]piperidinyl}methanesulfonamide] | 100 to 1000 | < 100 | 220 to 221 |  |  |  | 
COc1cccc2c1nc(C(F)F)n2-c1nc(N2CCOCC2)nc(N2CCCC(N(C)S(C)(=O)=O)C2)n1 (stereo in doubt) [Example 47, N-{(3S)-1-[4-[2-(difluoromethyl)-4-methoxy-1H-benzimidazol-1-yl]-6-(4-morpholinyl)-1,3,5-triazin-2-yl]piperidinyl}-N-methylmethanesulfonamide] | 100 to 1000 | < 100 | 221 to 223 |  |  |  | 
COc1cccc2c1nc(C(F)F)n2-c1nc(N2CCOCC2)nc(N2CCN(S(C)(=O)=O)CC2)n1 [Example 2, 2-(difluoromethyl)-4-methoxy-1-[4-[4-(methylsulfonyl)-1-piperazinyl]-6-(4-morpholinyl)-1,3,5-triazin-2-yl]-1H-benzimidazole] | 100 to 1000 | 100 to 1000 | 311 to 314 |  |  |  | 
COc1cccc2c1nc(C(F)F)n2-c1nc(N[C@@H]2CCN(S(C)(=O)=O)C2)nc(N2CCOCC2)n1 [Example 32, 4-[2-(difluoromethyl)-4-methoxy-1H-benzimidazol-1-yl]-N-[(3R)-1-(methylsulfonyl)pyrrolidinyl]-6-(4-morpholinyl)-1,3,5-triazin-2-amine] | 100 to 1000 | < 100 | 260 to 261 |  |  |  | 
COc1cccc2c1nc(C(F)F)n2-c1nc(N2CCOCC2)nc(N(C)[C@@H]2CCN(S(C)(=O)=O)C2)n1 [Example 33, 4-[2-(difluoromethyl)-4-methoxy-1H-benzimidazol-1-yl]-N-methyl-N-[(3R)-1-(methylsulfonyl)pyrrolidinyl]-6-(4-morpholinyl)-1,3,5-triazin-2-amine] | < 100 | < 100 | 238 to 240 |  |  |  | 
COc1cccc2c1nc(C(F)F)n2-c1nc(N[C@@H]2CCCN(S(C)(=O)=O)C2)nc(N2CCOCC2)n1 [Example 40, 4-[2-(difluoromethyl)-4-methoxy-1H-benzimidazol-1-yl]-N-[(3R)-1-(methylsulfonyl)piperidinyl]-6-(4-morpholinyl)-1,3,5-triazin-2-amine] | 100 to 1000 | < 100 | 241 to 243 |  |  |  | 
COc1cccc2c1nc(C(F)F)n2-c1nc(N[C@H]2CCCN(S(C)(=O)=O)C2)nc(N2CCOCC2)n1 [Example 42, 4-[2-(difluoromethyl)-4-methoxy-1H-benzimidazol-1-yl]-N-[(3S)-1-(methylsulfonyl)piperidinyl]-6-(4-morpholinyl)-1,3,5-triazin-2-amine] |  |  | 239 to 241 | 100 to 1000 | < 100 |  | 
COc1cccc2c1nc(C(F)F)n2-c1nc(OC2CCN(S(=O)(=O)CCN3CCN(S(C)(=O)=O)CC3)CC2)nc(N2CCOCC2)n1 [Example 52, 2-(difluoromethyl)-4-methoxy-1-[4-{[1-({2-[4-(methylsulfonyl)-1-piperazinyl]ethyl}sulfonyl)-4-piperidinyl]oxy}-6-(4-morpholinyl)-1,3,5-triazin-2-yl]-1H-benzimidazole] |  |  | 251 to 254 |  |  | > 1000 | > 1000
COc1cccc2c1nc(C(F)F)n2-c1nc(N[C@H]2CC[C@H](NS(C)(=O)=O)CC2)nc(N2CCOCC2)n1 [Example 78, trans-N-(4-{[4-[2-(difluoromethyl)-4-methoxy-1H-benzimidazol-1-yl]-6-(4-morpholinyl)-1,3,5-triazin-2-yl]amino}cyclohexyl)methanesulfonamide] | 100 to 1000 | < 100 | 269 to 272 |  |  |  | 
